Test results reported in patent US20020133009A1, “Method for opening potassium channels” (priority 2001, published 2002).

Legend:
maxi-K+ channels [1] = biological target: T1, maxi-K+ channels (Bos taurus, UniProt Q28204); assay: Patch clamp whole-cell current measurements in cultured bovine trabecular meshwork (TM) cells; assay type: cell-based
T1 construct: endogenous in cells; host or cells: cultured bovine trabecular meshwork (TM) cells
Experimental: (§1) Patch clamp experiments of cultured human and bovine trabecular meshwork (TM) cells are performed. Nystatin in a pipette is used to obtain perforated patches. Whole-cell current measurements in the cells are performed. Voltages from −80mV to +120mV with 200-msec duration each are applied through the patch pipette, starting from a holding potential of −40mV. After each step, the voltage is returned to a holding potential of […] for 200-msec. Currents are continuously sampled at 100 Hz throughout the duration of the protocol.

maxi-K+ channels [2] = biological target: T2, maxi-K+ channels (Homo sapiens, UniProt Q12791); assay: Patch clamp whole-cell current measurements in cultured human trabecular meshwork (TM) cells; assay type: cell-based
T2 construct: endogenous in cells; host or cells: cultured human trabecular meshwork (TM) cells
T2 sequence (Q12791 whole entry): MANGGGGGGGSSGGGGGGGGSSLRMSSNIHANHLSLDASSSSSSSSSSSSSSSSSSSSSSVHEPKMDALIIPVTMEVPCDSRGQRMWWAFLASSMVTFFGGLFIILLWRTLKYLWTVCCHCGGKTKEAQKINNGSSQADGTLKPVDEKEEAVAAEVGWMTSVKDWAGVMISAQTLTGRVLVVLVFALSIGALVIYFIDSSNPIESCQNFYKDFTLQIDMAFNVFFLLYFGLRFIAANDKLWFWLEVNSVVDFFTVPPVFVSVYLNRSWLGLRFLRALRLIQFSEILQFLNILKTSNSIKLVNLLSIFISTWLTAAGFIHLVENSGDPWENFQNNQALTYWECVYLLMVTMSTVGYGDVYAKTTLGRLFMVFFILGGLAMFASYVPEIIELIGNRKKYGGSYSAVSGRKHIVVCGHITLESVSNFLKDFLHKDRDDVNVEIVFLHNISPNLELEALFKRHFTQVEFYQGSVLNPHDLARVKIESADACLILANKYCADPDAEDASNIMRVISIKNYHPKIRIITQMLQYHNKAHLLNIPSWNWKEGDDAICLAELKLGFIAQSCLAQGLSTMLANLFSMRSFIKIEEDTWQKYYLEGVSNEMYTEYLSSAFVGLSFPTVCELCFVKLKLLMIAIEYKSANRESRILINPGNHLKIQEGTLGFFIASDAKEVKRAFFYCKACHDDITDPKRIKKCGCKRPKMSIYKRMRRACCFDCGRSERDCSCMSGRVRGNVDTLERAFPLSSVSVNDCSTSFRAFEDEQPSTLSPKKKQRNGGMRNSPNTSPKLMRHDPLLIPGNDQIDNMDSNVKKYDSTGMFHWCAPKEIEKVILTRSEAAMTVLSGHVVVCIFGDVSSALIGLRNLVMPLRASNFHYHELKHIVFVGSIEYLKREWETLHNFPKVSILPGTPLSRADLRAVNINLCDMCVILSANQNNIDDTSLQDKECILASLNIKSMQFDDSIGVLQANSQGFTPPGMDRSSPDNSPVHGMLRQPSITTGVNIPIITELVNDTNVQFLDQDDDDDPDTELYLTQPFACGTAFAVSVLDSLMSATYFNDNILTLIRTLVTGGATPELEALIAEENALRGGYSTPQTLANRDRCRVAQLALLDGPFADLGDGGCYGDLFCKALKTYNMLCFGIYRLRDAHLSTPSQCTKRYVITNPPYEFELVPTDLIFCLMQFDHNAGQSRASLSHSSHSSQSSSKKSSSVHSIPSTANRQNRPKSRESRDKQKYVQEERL
Experimental: as §1

T1 sequence (Q28204 whole entry): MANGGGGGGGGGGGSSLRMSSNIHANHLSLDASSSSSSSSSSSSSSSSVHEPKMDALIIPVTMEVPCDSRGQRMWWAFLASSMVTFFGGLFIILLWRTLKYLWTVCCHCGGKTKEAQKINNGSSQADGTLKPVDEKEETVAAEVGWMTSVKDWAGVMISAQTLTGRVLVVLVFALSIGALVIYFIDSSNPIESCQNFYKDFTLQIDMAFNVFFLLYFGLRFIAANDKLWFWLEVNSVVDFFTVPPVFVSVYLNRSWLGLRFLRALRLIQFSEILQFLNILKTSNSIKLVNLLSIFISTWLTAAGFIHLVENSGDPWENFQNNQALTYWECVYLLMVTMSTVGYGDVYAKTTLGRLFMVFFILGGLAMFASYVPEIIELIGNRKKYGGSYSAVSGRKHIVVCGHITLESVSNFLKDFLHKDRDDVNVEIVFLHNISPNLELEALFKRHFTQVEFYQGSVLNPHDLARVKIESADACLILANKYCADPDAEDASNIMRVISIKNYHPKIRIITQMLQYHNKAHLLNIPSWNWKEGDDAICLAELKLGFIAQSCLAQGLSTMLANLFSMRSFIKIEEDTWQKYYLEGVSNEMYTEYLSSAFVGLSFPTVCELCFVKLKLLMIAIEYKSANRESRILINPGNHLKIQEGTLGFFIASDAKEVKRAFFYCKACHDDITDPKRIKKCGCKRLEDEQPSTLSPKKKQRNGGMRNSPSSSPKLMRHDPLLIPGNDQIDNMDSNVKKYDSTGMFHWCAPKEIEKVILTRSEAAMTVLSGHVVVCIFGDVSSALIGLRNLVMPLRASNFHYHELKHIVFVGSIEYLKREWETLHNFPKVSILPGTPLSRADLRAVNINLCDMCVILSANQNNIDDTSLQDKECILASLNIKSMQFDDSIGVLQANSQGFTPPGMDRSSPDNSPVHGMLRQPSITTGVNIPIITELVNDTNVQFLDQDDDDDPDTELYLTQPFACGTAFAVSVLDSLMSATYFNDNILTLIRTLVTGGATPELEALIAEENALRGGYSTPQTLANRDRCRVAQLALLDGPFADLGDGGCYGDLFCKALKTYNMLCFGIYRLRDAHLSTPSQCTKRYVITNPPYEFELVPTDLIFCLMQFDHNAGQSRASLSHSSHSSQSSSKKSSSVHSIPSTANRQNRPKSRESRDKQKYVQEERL

| Compound | overall current of the cells (maxi-K+ channels [1]; bovine TM cells incubated in either acetylcholine or endothelin) | total current, % of the control (maxi-K+ channels [1]; bovine trabecular meshwork cells incubated in acetylcholine, 10^-5 M unoprostone isopropyl, p<0.01) | maxi-K+ channel opening (maxi-K+ channels [1]; conclusion from iberiotoxin block, TM cells, species not given) | overall current of the cells (maxi-K+ channels [2]; human TM cells incubated in either acetylcholine or endothelin) | overall current (maxi-K+ channels [2]; human trabecular meshwork cells incubated in acetylcholine) | overall current (maxi-K+ channels [2]; human trabecular meshwork cells incubated in the presence of endothelin) | effect on unoprostone isopropyl-induced current (maxi-K+ channels [1]; TM cells, species not given) | total current inhibited by iberiotoxin, % of the control (maxi-K+ channels [1]; bovine trabecular meshwork cells incubated in acetylcholine, after unoprostone isopropyl stimulation) |
| --- | --- | --- | --- | --- | --- | --- | --- | --- |
| CCCCCCCC(=O)CC[C@@H]1[C@@H](C/C=C\CCCC(=O)OC(C)C)[C@@H](O)C[C@H]1O [unoprostone isopropyl, [1R-[1α(Z),2β,3a,5a]]-7-[3,5-dihydroxy-2-(3-oxodecyl)cyclopentyl]-5-heptenoic acid isopropyl ester] | stimulated the overall current | approximately 180% | opens maxi-K+ channels | stimulated the overall current | stimulates the overall current | induces an increase in the overall current |  |  |
| iberiotoxin: highly specific inhibitor of maxi-K+ channels (QFTDVDCSVSKECWSVCKDLFGVDRGKCMGKKCRCYQ; UniProt P24663 1-37, looked up) [reference compound] |  |  |  |  |  |  | totally reduced | approximately 40% |
